In ChEMBL document CHEMBL5518248, “Design, Synthesis, and Biological Evaluation of Novel Arylomycins against Multidrug-Resistant Gram-Negative Bacteria” (J Med Chem, 2024):

How the values were obtained:
Format in all cases: functional
Details in all cases: time 18-20 hrs
Escherichia coli [1] = assay: Antibacterial activity against Escherichia coli ATCC 35218 assessed as inhibition of bacterial growth measured after 18 to 20 hrs by broth microdilution method
Escherichia coli [2] = assay: Antibacterial activity against Escherichia coli 14-2 assessed as inhibition of bacterial growth measured after 18 to 20 hrs by broth microdilution method
Escherichia coli [3] = assay: Antibacterial activity against Escherichia coli 14-4 assessed as inhibition of bacterial growth measured after 18 to 20 hrs by broth microdilution method
Klebsiella pneumoniae [4] = assay: Antibacterial activity against Klebsiella pneumoniae 15-1 assessed as inhibition of bacterial growth measured after 18 to 20 hrs by broth microdilution method
Klebsiella pneumoniae [5] = assay: Antibacterial activity against Klebsiella pneumoniae 15-4 assessed as inhibition of bacterial growth measured after 18 to 20 hrs by broth microdilution method
Klebsiella pneumoniae [6] = assay: Antibacterial activity against Klebsiella pneumoniae 15-5 assessed as inhibition of bacterial growth measured after 18 to 20 hrs by broth microdilution method
Acinetobacter baumannii [7] = assay: Antibacterial activity against Acinetobacter baumannii 17-2 assessed as inhibition of bacterial growth measured after 18 to 20 hrs by broth microdilution method
Acinetobacter baumannii [8] = assay: Antibacterial activity against Acinetobacter baumannii 17-8 assessed as inhibition of bacterial growth measured after 18 to 20 hrs by broth microdilution method
Pseudomonas aeruginosa [9] = assay: Antibacterial activity against Pseudomonas aeruginosa 17-1 assessed as inhibition of bacterial growth measured after 18 to 20 hrs by broth microdilution method
Pseudomonas aeruginosa [10] = assay: Antibacterial activity against Pseudomonas aeruginosa 19-5 assessed as inhibition of bacterial growth measured after 18 to 20 hrs by broth microdilution method

| SMILES | MIC (Escherichia coli [1]) [µg/mL] | MIC (Escherichia coli [2]) [µg/mL] | MIC (Escherichia coli [3]) [µg/mL] | MIC (Klebsiella pneumoniae [4]) [µg/mL] | MIC (Klebsiella pneumoniae [5]) [µg/mL] | MIC (Klebsiella pneumoniae [6]) [µg/mL] | MIC (Acinetobacter baumannii [7]) [µg/mL] | MIC (Acinetobacter baumannii [8]) [µg/mL] | MIC (Pseudomonas aeruginosa [9]) [µg/mL] | MIC (Pseudomonas aeruginosa [10]) [µg/mL] |
| --- | --- | --- | --- | --- | --- | --- | --- | --- | --- | --- |
| Cc1nc(-c2ccc(C(C)(C)C)cc2)ncc1C(=O)N[C@@H](CCN)C(=O)N(C)[C@@H]1C(=O)N[C@@H](C)C(=O)N[C@H](C(=O)OCC#N)Cc2ccc(OCCN)c(c2)-c2cc1ccc2OCCN.O=C(O)C(F)(F)F.O=C(O)C(F)(F)F.O=C(O)C(F)(F)F.O=C(O)C(F)(F)F | 0.06 | 0.125 | 0.25 | 0.125 | 0.25 | 0.25 | 8 | 4 | > 64 | > 64 |
| Cc1nc(-c2ccc(CSSCCC(F)(F)F)cc2)ncc1C(=O)N[C@@H](CCN)C(=O)N(C)[C@@H]1C(=O)N[C@@H](C)C(=O)N[C@H](C(=O)NCC#N)Cc2ccc(OCCN)c(c2)-c2cc1ccc2OCCN.O=C(O)C(F)(F)F.O=C(O)C(F)(F)F.O=C(O)C(F)(F)F.O=C(O)C(F)(F)F | 0.06 | 0.125 | 0.125 | 0.25 | 0.25 | 0.25 | 2 | 1 | 8 | 8 |
| Cc1nc(-c2ccc(CSSCC[Si](C)(C)C)cc2)ncc1C(=O)N[C@@H](CCN)C(=O)N(C)[C@@H]1C(=O)N[C@@H](C)C(=O)N[C@H](C(=O)NCC#N)Cc2ccc(OCCN)c(c2)-c2cc1ccc2OCCN.O=C(O)C(F)(F)F.O=C(O)C(F)(F)F.O=C(O)C(F)(F)F.O=C(O)C(F)(F)F | 0.25 | 0.5 | 1 | 1 | 1 | 1 | 1 | 1 | 4 | 4 |
| Cc1nc(-c2ccc(C(C)(C)C)cc2)ncc1C(=O)N[C@@H](CCN)C(=O)N(C)[C@@H]1C(=O)N[C@@H](C)C(=O)N[C@H](NC(=O)NC#N)Cc2ccc(OCCN)c(c2)-c2cc1ccc2OCCN.O=C(O)C(F)(F)F.O=C(O)C(F)(F)F.O=C(O)C(F)(F)F.O=C(O)C(F)(F)F | 32 | 64 | 64 | 64 | 64 | 64 | > 64 | > 64 | > 64 | > 64 |
| Cc1nc(-c2ccc(C(C)(C)C)cc2)ncc1C(=O)N[C@@H](CCN)C(=O)N(C)[C@H]1Cc2ccc(OCCN)c(c2)-c2cc(ccc2OCCN)[C@@H](C(=O)NCC#N)NC(=O)[C@H](C)NC1=O.Cl.Cl.Cl.Cl | > 64 | > 64 | > 64 | > 64 | > 64 | > 64 | > 64 |  | > 64 | > 64 |
| CCCCCSSCc1ccc(-c2ncc(C(=O)N[C@@H](CCN)C(=O)N(C)[C@@H]3C(=O)N[C@@H](C)C(=O)N[C@H](C(=O)NCC#N)Cc4ccc(OCCN)c(c4)-c4cc3ccc4OCCN)c(C)n2)cc1.O=C(O)C(F)(F)F.O=C(O)C(F)(F)F.O=C(O)C(F)(F)F.O=C(O)C(F)(F)F | ≤ 0.03 | 0.06 | ≤ 0.03 | 0.25 | 0.25 | 0.25 | 0.5 | 0.5 | 4 | 2 |
| Cc1nc(-c2ccc(C(C)(C)C)cc2)ncc1C(=O)N[C@@H](CCN)C(=O)N(C)[C@@H]1C(=O)N[C@@H](C)C(=O)N[C@H](C(=O)NCS(=O)(=O)O)Cc2ccc(OCCN)c(c2)-c2cc1ccc2OCCN.Cl.Cl.Cl.Cl | 16 | 32 | 8 | 4 | 16 | 8 | > 64 |  | > 64 | > 64 |
| Cc1nc(-c2ccc(C(C)(C)C)cc2)ncc1C(=O)N[C@@H](CCN)C(=O)N(C)[C@@H]1C(=O)N[C@@H](C)C(=O)N[C@H](NC(=O)NCC#N)Cc2ccc(OCCN)c(c2)-c2cc1ccc2OCCN.O=C(O)C(F)(F)F.O=C(O)C(F)(F)F.O=C(O)C(F)(F)F.O=C(O)C(F)(F)F | 32 | 64 | 64 | > 64 | > 64 | > 64 | > 64 | > 64 | > 64 | > 64 |
| Cc1nc(-c2ccc(C(C)(C)C)cc2)ncc1C(=O)N[C@@H](CCN)C(=O)N(C)[C@@H]1C(=O)N[C@@H](C)C(=O)N[C@H](C(=O)NCC(=O)O)Cc2ccc(OCCN)c(c2)-c2cc1ccc2OCCN.Cl.Cl.Cl.Cl | 1 | 1 | 1 | 1 | 2 | 1 | 64 |  | > 64 | > 64 |
| CSSc1ccc(-c2ncc(C(=O)N[C@@H](CCN)C(=O)N(C)[C@@H]3C(=O)N[C@@H](C)C(=O)N[C@H](C(=O)NCC#N)Cc4ccc(OCCN)c(c4)-c4cc3ccc4OCCN)c(C)n2)cc1.O=C(O)C(F)(F)F.O=C(O)C(F)(F)F.O=C(O)C(F)(F)F.O=C(O)C(F)(F)F | 0.25 | 0.5 | 0.5 | 0.5 | 1 | 1 | 4 | 2 | 16 | 16 |
| Cc1nc(-c2ccc(CCSSC(C)(C)C)cc2)ncc1C(=O)N[C@@H](CCN)C(=O)N(C)[C@@H]1C(=O)N[C@@H](C)C(=O)N[C@H](C(=O)NCC#N)Cc2ccc(OCCN)c(c2)-c2cc1ccc2OCCN.O=C(O)C(F)(F)F.O=C(O)C(F)(F)F.O=C(O)C(F)(F)F.O=C(O)C(F)(F)F | ≤ 0.03 | ≤ 0.03 | ≤ 0.03 | 0.06 | 0.125 | ≤ 0.03 | 0.25 | 0.5 | 4 | 4 |
| Cc1nc(-c2ccc(C(C)(C)C)cc2)ncc1C(=O)N[C@@H](CCN)C(=O)N(C)[C@@H]1C(=O)N[C@@H](C)C(=O)N[C@H](C(=O)NOCC#N)Cc2ccc(OCCN)c(c2)-c2cc1ccc2OCCN.Cl.Cl.Cl.Cl | 0.5 | 0.5 | 0.5 | 0.5 | 2 | 1 | 32 |  | > 64 | > 64 |
| Cc1nc(-c2ccc(C(C)(C)C)cc2)ncc1C(=O)N[C@@H](CCN)C(=O)N(C)[C@@H]1C(=O)N[C@@H](C)C(=O)N[C@H](C(=O)NCC#N)c2ccc(OCCN)c(c2)-c2cc1ccc2OCCN.Cl.Cl.Cl.Cl | 64 | 32 | 32 | 64 | > 64 | 64 | > 64 |  | > 64 | 32 |
| Cc1nc(-c2ccc(C(C)(C)C)cc2)ncc1C(=O)N[C@@H](CCN)C(=O)N(C)[C@@H]1C(=O)NCCC(=O)N[C@H](C(=O)NCC#N)Cc2ccc(OCCN)c(c2)-c2cc1ccc2OCCN.Cl.Cl.Cl.Cl | 16 | 16 | 16 | 32 | 32 | 64 | > 64 |  | > 64 | > 64 |
